# Data reported in PubChem BioAssay (NCI).
#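 Values below derive from 48-hour exposures of cells grown in 96-well plates, with endpoints linearly interpolated between the two concentrations bracketing the appropriate inhibition level. The concentration for full growth arrest is given as TGI.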
# Experiments:
# Assay in all cases: NCI anticancer screen, dose series, 48 h
# [1] = tested on: UACC-62 melanoma
# [2] = tested on: HCC-2998 colon
# [3] = tested on: SW-620 colon
# [4] = tested on: EKVX NSCLC
# [5] = tested on: A498 renal
# [6] = tested on: SF-539 CNS
# [7] = tested on: SNB-75 CNS
# [8] = tested on: PC-3 prostate
# [9] = tested on: SK-MEL-2 melanoma
# [10] = tested on: OVCAR-8 ovarian
Structure (SMILES),TGI [1] [µM],TGI [2] [µM],TGI [3] [µM],TGI [4] [µM],TGI [5] [µM],TGI [6] [µM],TGI [7] [µM],TGI [8] [µM],TGI [9] [µM],TGI [10] [µM]
COC(=O)/C(=N\N)C(C(=O)C(=O)Nc1cc(Cl)ccc1Cl)c1nc2ccc([N+](=O)[O-])cc2[nH]c1=O (stereo not given),> 100,> 100,> 100,> 100,> 100,> 100,> 100,> 100,> 100,> 100
Cc1cccc(C)c1NC(=O)C(=O)CC(=O)c1sc(Nc2c(C)cccc2C)nc1C,> 100,> 100,> 100,> 100,> 100,> 100,> 100,> 100,> 100,> 100
COC(=O)/C=C1\C(CO[Si](C)(C)C(C)(C)C)OC(n2ccc(=O)[nH]c2=O)C1O (stereo not given),54.1,26.2,> 100,59.8,41.6,30.2,> 100,> 27.9,21.1,> 100
COC(=O)c1ccc(CCC2=CC(=O)C=CC2=O)cc1,29.3,30.8,26.2,38.7,32.9,25.6,32,27.7,30.4,50.7
COC(=O)C1CC2CC1C1C2SC(F)(F)C1(F)F (stereo not given),> 100,> 100,> 100,> 100,> 100,> 100,> 100,> 100,> 100,> 100
CCc1nc(N)nc(N)c1-c1ccc(N2CCOCC2)c(N=[N+]=[N-])c1,> 100,> 100,> 100,> 100,> 100,> 100,> 100,> 100,> 100,> 100
CC(C)(C)n1c(=O)n2c(-c3ccccc3)c(-c3ccccc3)n2c1=O,> 100,> 100,> 100,> 100,> 100,> 100,> 100,> 100,85.3,> 100
COc1ccc(NC(=S)c2ccc([N+](=O)[O-])o2)cc1,3.47,3,2.9,7.78,29.1,0.549,14.9,2.97,4.15,13.1
COc1ccc(OC/C(N)=N/NC(=O)c2ccncc2)cc1,> 100,> 100,> 100,> 100,> 100,> 100,> 100,> 100,> 100,> 100
CCOC(=O)c1cn(-c2ccc([N+](=O)[O-])cc2)c(=S)n2c1nc1ccccc12,> 100,> 100,> 100,> 100,87.7,> 100,> 100,> 100,76.7,> 100
Cc1cn([C@H]2C[C@@H](N3C(=O)c4ccccc4C3=O)[C@@H](CO[Si](C)(C)C(C)(C)C)O2)c(=O)[nH]c1=O,74.9,> 100,> 100,> 100,> 100,> 100,60.8,> 100,> 100,> 100
CN(/N=C/c1ccccn1)C1=NCCN1,> 100,> 100,> 100,> 100,> 100,> 100,> 100,> 100,> 100,> 100
Clc1ccc(C(OCn2ccnc2)c2nc3ccccc3[nH]2)c(Cl)c1 (stereo not given),> 100,> 100,> 100,> 100,> 100,> 100,> 100,> 100,> 100,> 100
Cc1nc2ccc(S(=O)(=O)O)cc2c(=O)n1-c1ccc(C(=O)NN2C(=O)C(Cl)C2c2cccs2)cc1 (stereo not given),> 100,> 100,> 100,35.3,> 100,> 100,> 100,> 100,54.1,> 100
C[C@H]1CCC/C=C/[C@@H]2C[C@H](OC(=O)CN(C)C)C[C@H]2[C@H](O)/C=C/C(=O)O1,22.1,0.235,4.53,22.2,> 32.3,> 48.2,99.7,8.74,1.36,5.54
CCCCCCC1OC23OC1CCC2C(O)CCC3O (stereo not given),> 100,> 100,> 100,> 100,> 100,> 100,> 100,> 100,> 100,> 100
NC(CCC(=O)O)C(=O)NC(Cc1ccc(N(CCCl)CCCl)cc1)C(=O)O (stereo not given),> 100,> 100,> 100,> 100,> 100,> 100,> 100,> 100,> 100,> 100
